Measurements taken from patent US4031259A, “Process of preparing nutritive sweetening compositions” (General Foods Corporation, priority 1975, dated 1977).
Where a SMILES comes first, the peptide text is derived from it.

Experiments:
[1] = Rate of solubility: time to complete dissolution in room temperature distilled water (10 ml, pH 5.7, constant stirring); Solubility Factor derived from it; format: physicochemical; settings: APM alone (control); for Rate of Solubility (time until complete dissolution): in 10 ml room temperature distilled water, pH 5.7, magnetic stirrer, B3: incomplete dissolution after this time
Method: The following represents a broad ratio of systems tested in order to evaluate the effect protein hydrolysates have on the rate of solubility of APM.
All systems were prepared by dissolving the ingredients in water and freeze-drying. Evaluations were made in room temperature distilled water (10 ml) having a pH of 5.7 with constant stirring by a magnetic stirrer. The time was clocked from the instant the powder hit the water until complete dissolution.
Samples A1 - A4 consisted of 1 g. each in 10 ml; samples B1 - B4 (controls) consisted of the amount indicated, also in 10 ml., the total amount of APM in the controls being equivalent to the respective test samples (A1 - A4). Where applicable, the ratio expressed is of APM to soy isolate respectively.
A convenient way of expressing the change in the solubility rate of a given amount of sweetener after combining with protein hydrolysate and dried is called the "Solubility Factor."
This is expressed as follows: [formula] the higher the SF value, the more appreciable the improvement in solubility.

[2] = as much as; cited from earlier work

Row | Rate of Solubility (time until complete dissolution) [1] [min] | SMILES | also measured
1 | 7 | COC(=O)[C@H](Cc1ccccc1)NC(=O)[C@@H](N)CC(=O)O [Sample B1, L-aspartyl-L-phenylalanine methyl ester] (H-Asp-Phe-OMe) | 
2 | 11 | COC(=O)[C@H](Cc1ccccc1)NC(=O)[C@@H](N)CC(=O)O [Sample B2, L-aspartyl-L-phenylalanine methyl ester] (H-Asp-Phe-OMe) | 
3 | > 50 | COC(=O)[C@H](Cc1ccccc1)NC(=O)[C@@H](N)CC(=O)O [Sample B3, L-aspartyl-L-phenylalanine methyl ester] (H-Asp-Phe-OMe) | 

Further lines, the compound ahead of its results:

Row | SMILES | Rate of Solubility (time until complete dissolution) [1] [min] | also measured
4 | COC(=O)[C@H](Cc1ccccc1)NC(=O)[C@@H](N)CC(=O)O [Sample B4, L-aspartyl-L-phenylalanine methyl ester] (H-Asp-Phe-OMe) |  | Rate of Solubility (incomplete dissolution after) ([1]; 200 mgs. in 10 ml room temperature distilled water, pH 5.7): > 1 h
5 | COC(=O)[C@H](Cc1ccccc1)NC(=O)[C@@H](N)CC(=O)O [APM, L-aspartyl-L-phenylalanine methyl ester] (H-Asp-Phe-OMe) |  | sweetness relative to sucrose [2]: ≤ 200 times as sweet as sucrose
